Laboratory results as given in patent US20180305345A1 (priority 2015, published 2018).

What was measured:
[1] = tested on: VSVΔ51-resistant HT29 cells (human colon carcinoma); design: species or system Balb/c mice; conditions: in vivo
[2] = tested on: VSVΔ51 in 786-0 cells; assay type: cell-based, human

Structure (SMILES): O=C1C(Cl)=C(Cl)C(O)N1CCN1CCOCC1 (stereo not shown) [Compound 28, 3,4-dichloro-5-hydroxy-1-(2-morpholinoethyl)-1H-pyrrol-2(5H)-one]
- mouse survival [1]: increased mouse survival rates
- tumor growth ([1]; mouse): reduced tumor growth

Structure (SMILES): O=C1OC(c2ccccc2)C(Cl)=C1Cl (stereo not shown) [Compound 1, 3,4-dichloro-5-phenyl-2,5-dihydrofuran-2-one, reference compound]
- effect on viral growth after removal of compound at various times [2]: rapid and sustained

Structure (SMILES): O=C1C(Cl)=C(Cl)C(O)N1Cc1ccccc1 (stereo not drawn) [Compound 10, α,β-dichloro-γ-hydroxy-N-benzyl-crotonic lactam]
- effect on viral growth after removal of compound at various times [2]: rapid and sustained
